test system: human embryonic stem cell derived neural stem cells (NSCs); test: Neural stem cell proliferation assay (neurogenesis assay); format: cell-based; conditions: Homo sapiens, Neural stem cell, 96 h; Table 1, novel compounds; concentration at which 150% activity of control (100%) is reached; ATP levels (CellTiterGlo) after 4 days incubation
How it was run: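 NSCs derived from human ES cells by dual SMAD inhibition, seeded on polyornithin/laminin, dosed 4 h later (11 points, 8 μM to 8 nM). After 4 days at 37° C, ATP luminescence read; response = compound/medium control ×100, EC150 = concentration giving 150% of control.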

Row | SMILES | EC (150% of control) [µM]
1 | CS(=O)(=O)CCNC(=O)c1ccc2cncc(-c3ccc(F)c(F)c3)c2n1 [Example 137, 8-(3,4-Difluorophenyl)-N-(2-(methylsulfonyl)ethyl)-1,6-naphthyridine-2-carboxamide] | 0.35
2 | N#Cc1ccc(-c2cncc3ccc(C(N)=O)nc23)cc1 [Example 85, 8-(4-Cyanophenyl)-1,6-naphthyridine-2-carboxamide] | 0.05
3 | Cn1nccc1-c1cncc2ccc(C(N)=O)nc12 [Example 99, 8-(1-Methyl-1H-pyrazol-5-yl)-1,6-naphthyridine-2-carboxamide] | 2.2
4 | Cc1cccc(-c2cncc3ccc(C(N)=O)nc23)c1 [Example 81, 8-m-Tolyl-1,6-naphthyridine-2-carboxamide] | 0.05
5 | CC(NC(=O)c1ccc2cncc(-c3ccc(Cl)cc3Cl)c2n1)C(C)(C)O (centres unmarked) [Example 172, 8-(2,4-Dichlorophenyl)-N-(3-hydroxy-3-methylbutan-2-yl)-1,6-naphthyridine-2-carboxamide] | 0.5
6 | CC(C)(C)NC(=O)c1ccc2cncc(-c3ccc(Cl)cc3)c2n1 [Example 69, N-tert-Butyl-8-(4-chlorophenyl)-1,6-naphthyridine-2-carboxamide] | 0.32
7 | O=C(NCC1CC1)c1ccc2cncc(-c3ccc(Cl)cc3)c2n1 [Example 67, 8-(4-Chlorophenyl)-N-(cyclopropylmethyl)-1,6-naphthyridine-2-carboxamide] | 0.01
8 | NC(=O)c1ccc2cncc(-c3ccc(F)cc3)c2n1 [Example 77, 8-(4-Fluorophenyl)-1,6-naphthyridine-2-carboxamide] | 0.09
9 | O=C(NCc1cccnc1)c1ccc2cncc(-c3ccc(Cl)cc3)c2n1 [Example 45, 8-(4-Chlorophenyl)-N-(pyridin-3-ylmethyl)-1,6-naphthyridine-2-carboxamide] | 0.02
10 | O=C(c1ccc2cncc(-c3ccc(Cl)cc3)c2n1)N1CCC(O)C1 (centres unmarked) [Example 75, (8-(4-Chlorophenyl)-1,6-naphthyridin-2-yl)(3-hydroxypyrrolidin-1-yl)methanone] | 0.4
11 | NC(=O)c1ccc2cncc(C3=CCOCC3)c2n1 [Example 146, 8-(3,6-Dihydro-2H-pyran-4-yl)-1,6-naphthyridine-2-carboxamide] | 0.21
12 | COCCNC(=O)c1ccc2cncc(-c3ccc(OC)cc3)c2n1 [Example 2, N-(2-Methoxyethyl)-8-(4-methoxyphenyl)-1,6-naphthyridine-2-carboxamide] | 0.03
13 | CC(C)(CO)NC(=O)c1ccc2cncc(-c3ccc(Cl)cc3)c2n1 [Example 71, 8-(4-Chlorophenyl)-N-(1-hydroxy-2-methylpropan-2-yl)-1,6-naphthyridine-2-carboxamide] | 1.06
14 | NC(=O)c1ccc2cncc(-c3ccc(Cl)nc3)c2n1 [Example 159, 8-(6-Chloropyridin-3-yl)-1,6-naphthyridine-2-carboxamide] | 0.18
15 | O=C(NCC(F)(F)F)c1ccc2cncc(-c3ccccc3F)c2n1 [Example 125, 8-(2-Fluorophenyl)-N-(2,2,2-trifluoroethyl)-1,6-naphthyridine-2-carboxamide] | 0.04
16 | CC(C)Cc1cncc2ccc(C(N)=O)nc12 [Example 136, 8-Isobutyl-1,6-naphthyridine-2-carboxamide] | 0.04
17 | NC(=O)c1ccc2cncc(-c3ccc(Cl)c(F)c3)c2n1 [Example 169, 8-(4-Chloro-3-fluorophenyl)-1,6-naphthyridine-2-carboxamide] | 0.03
18 | NC(=O)c1ccc2cncc(-c3ccc(OC(F)(F)F)cc3)c2n1 [Example 95, 8-(4-(Trifluoromethoxy)phenyl)-1,6-naphthyridine-2-carboxamide] | 0.05
19 | Cc1cc2cncc(-c3ccc(OC(F)(F)F)cc3)c2nc1C(N)=O [Example 154, 3-Methyl-8-(4-(trifluoromethoxy)phenyl)-1,6-naphthyridine-2-carboxamide] | 2.19

Row | SMILES | EC (150% of control) [µM]
20 | COCCNC(=O)c1ccc2cnccc2n1 [Example 4, N-(2-Methoxyethyl)-1,6-naphthyridine-2-carboxamide] | 0.5
21 | O=C(NCc1ccccc1)c1ccc2cncc(-c3ccc(Cl)cc3)c2n1 [Example 13, N-Benzyl-8-(4-chlorophenyl)-1,6-naphthyridine-2-carboxamide] | 0.05
22 | CS(=O)(=O)NNC(=O)c1ccc2cncc(-c3ccc(Cl)cc3)c2n1 [Example 49, N′-(8-(4-Chlorophenyl)-1,6-naphthyridine-2-carbonyl)methanesulfonohydrazide] | 0.07
23 | CC(NC(=O)c1ccc2cncc(-c3ccccc3Cl)c2n1)C(C)(C)O (centres unmarked) [Example 171, 8-(2-Chlorophenyl)-N-(3-hydroxy-3-methylbutan-2-yl)-1,6-naphthyridine-2-carboxamide] | 0.12
24 | O=C(Nc1cccnc1)c1ccc2cncc(-c3ccc(Cl)cc3)c2n1 [Example 54, 8-(4-Chlorophenyl)-N-(pyridin-3-yl)-1,6-naphthyridine-2-carboxamide] | 0.8
25 | O=C(NCCCn1ccnc1)c1ccc2cncc(-c3ccncc3)c2n1 [Example 41, N-(3-(1H-Imidazol-1-yl)propyl)-8-(pyridin-4-yl)-1,6-naphthyridine-2-carboxamide] | 1.7
26 | O=C(NN1CCCCC1)c1ccc2cncc(-c3ccc(Cl)cc3)c2n1 [Example 59, 8-(4-Chlorophenyl)-N-(piperidin-1-yl)-1,6-naphthyridine-2-carboxamide] | 1.48
27 | O=C(NCc1ccccc1)c1ccc2cncc(Br)c2n1 [Example 10, N-Benzyl-8-bromo-1,6-naphthyridine-2-carboxamide] | 0.76
28 | O=C(NCC(F)(F)F)c1ccc2cncc(-c3cc(F)ccc3F)c2n1 [Example 128, 8-(2,5-Difluorophenyl)-N-(2,2,2-trifluoroethyl)-1,6-naphthyridine-2-carboxamide] | 0.13
29 | O=C(NC1CCOC1)c1ccc2cncc(-c3ccc(Cl)cc3)c2n1 (centres unmarked) [Example 60, 8-(4-Chlorophenyl)-N-(tetrahydrofuran-3-yl)-1,6-naphthyridine-2-carboxamide] | 0.15
30 | COc1ccc(-c2cncc3ccc(C(=O)NCCc4ccccc4)nc23)cc1 [Example 20, 8-(4-Methoxyphenyl)-N-phenethyl-1,6-naphthyridine-2-carboxamide] | 0.8
31 | CCCCCCNC(=O)Cc1ccc(-c2cncc3ccc(C(N)=O)nc23)cc1 [Example 150, 8-(4-(2-(Hexylamino)-2-oxoethyl)phenyl)-1,6-naphthyridine-2-carboxamide] | 0.04
32 | CN(C)S(=O)(=O)c1ccc(-c2cncc3ccc(C(N)=O)nc23)cc1 [Example 106, 8-(4-(N,N-Dimethylsulfamoyl)phenyl)-1,6-naphthyridine-2-carboxamide] | 0.19
33 | NC(=O)c1ccc2cncc(-c3cccc(N4CCOCC4)c3)c2n1 [Example 93, 8-(3-Morpholinophenyl)-1,6-naphthyridine-2-carboxamide] | 0.21
34 | CC(C)(C)OC(=O)N1CCN(C(=O)c2ccc3cncc(-c4ccc(Cl)cc4)c3n2)CC1 [Example 58, tert-Butyl 4-(8-(4-chlorophenyl)-1,6-naphthyridine-2-carbonyl)piperazine-1-carboxylate] | 1.1
35 | NC(=O)c1ccc2cncc(-c3cccc(Cl)c3)c2n1 [Example 167, 8-(3-Chlorophenyl)-1,6-naphthyridine-2-carboxamide] | 0.09
36 | CC(NC(=O)c1ccc2cncc(-c3ccc(C(F)(F)F)cc3)c2n1)C(C)(C)O (centres unmarked) [Example 161, N-(3-Hydroxy-3-methylbutan-2-yl)-8-(4-(trifluoromethyl)phenyl)-1,6-naphthyridine-2-carboxamide] | 0.06
37 | COc1cccc(-c2cncc3ccc(C(=O)NCc4ccncc4)nc23)c1 [Example 26, 8-(3-Methoxyphenyl)-N-(pyridin-4-ylmethyl)-1,6-naphthyridine-2-carboxamide] | 0.28

same assay, conditions: Homo sapiens, Neural stem cell, 96 h; Table 2, known compounds; concentration at which 150% activity of control (100%) is reached; ATP levels (CellTiterGlo) after 4 days incubation

Row | SMILES | EC (150% of control) [µM]
38 | O=C(NCCCn1ccnc1)c1ccc2cncc(-c3ccccc3)c2n1 [Example 189, 8-Phenyl-[1,6]naphthyridine-2-carboxylic acid (3-imidazol-1-yl-propyl)-amide] | 1.2
39 | COCCNC(=O)c1ccc2cncc(-c3ccccc3)c2n1 [Example 204, 8-Phenyl-[1,6]naphthyridine-2-carboxylic acid (2-methoxy-ethyl)-amide] | 0.2
40 | COc1ccc(-c2cncc3ccc(C(=O)N4CCN(c5ccccn5)CC4)nc23)cc1 [Example 185, [8-(4-Methoxy-phenyl)-[1,6]naphthyridin-2-yl]-(4-pyridin-2-yl-piperazin-1-yl)-methanone] | 0.8
41 | O=C(NCc1ccccc1)c1ccc2cncc(-c3ccsc3)c2n1 [Example 199, 8-Thiophen-3-yl-[1,6]naphthyridine-2-carboxylic acid benzylamide] | 0.1
42 | Cc1cnc(CNC(=O)c2ccc3cncc(-c4ccccc4)c3n2)cn1 [Example 190, 8-Phenyl-[1,6]naphthyridine-2-carboxylic acid (5-methyl-pyrazin-2-ylmethyl)-amide] | 0.5
43 | O=C(NCc1ccc(Cl)cc1)c1ccc2cncc(-c3ccsc3)c2n1 [Example 201, 8-Thiophen-3-yl-[1,6]naphthyridine-2-carboxylic acid 4-chloro-benzylamide] | 0.8
44 | O=C(c1ccc2cncc(-c3ccccc3)c2n1)N1CCN(c2ccccn2)CC1 [Example 192, (8-Phenyl-[1,6]naphthyridin-2-yl)-(4-pyridin-2-yl-piperazin-1-yl)-methanone] | 1.4
